Reference: publication PMC11288129, “Diversely evolved xibalbin variants from remipede venom inhibit potassium channels and activate PKA-II and Erk1/2 signaling” (BMC Biology, 2024)
Positions of bridges follow the written chain, without caps; N, C: chain ends. No end group written: not given here.

Assays:
[1] = test system: THP-1 cell adhesion to HMECs; experiment: Adhesion of THP-1 leukocytes onto TNF-activated endothelial cells; format: cell-based, human; conditions: 25 µg/ml
Method: Nitric oxide has a complex and diverse role in pain modulation. […] Finally, we analyzed the effects of xibalbins on the leukocyte adhesion to the vascular endothelium, which is a critical step in the inflammatory response of inflamed tissues. Xibalbins were analyzed for their ability to alter the adhesion of human monocytic (THP-1) cells onto a TNF-activated endothelial cell monolayer (Additional File 5: Figure S4). […] All individual values for these experiments are given in Additional File 8: Table S3.
Supplementary file 12915_2024_1955_MOESM5_ESM.jpg: Additional file 5: Figure S4. Effects of xibalbins on cytotoxicity in RAW264.7 macrophages and adhesion of leukocytes onto the vascular endothelium. (i) For the viability assay, RAW264.7 cells were treated with 25 μg/ml concentrations of xibalbins for 24 h. Cells were incubated with WST-8 and the formed formazan was detected by absorbance measurements. (ii) For the proliferation assay, HMEC-1 cells were grown in low density and treated after 24 h with the indicated peptide for 72 h. Cells were stained with crystal violet solution. The amount of DNA-bound crystal violet was detected by absorbance measurements. […] The adhesion of leukocytes onto endothelial cells was quantified by fluorescence measurements using a Tecan Infinite F200 Pro microplate reader (Tecan, Männedorf, Switzerland) (excitation: 485 nm, emission: 535 nm). […]

[2] = test system: rKv4.2; experiment: TEVC inhibition, Kv4.2; format: cell-based, rat; design: unit not given here; conditions: 1 µM
Excerpt: (§1) For the expression of Kv channels rat Kv1.1 (GenBank accession number: NM_173095 [88, 89]), rKv1.2 (NM_012970 [90, 91]), human Kv1.3 (NM_002232 [92, 93]), rKv1.4 (NM_012971 [94, 95]), rKv1.6 (NM_023954 [96, 97]), hKv2.1 (NM_004975 [98, 99]), hKv3.1 (NM_004976 [100, 101]), rKv4.2 (NM_031739 [102, 103]), hKv10.1 (NM_172362 [104, 105]), hERG1 [Kv11.1, (NM_000238 [106, 107])], and Shaker IR [from Drosophila melanogaster, (NM_167595 [108, 109])], Nav channels [rNav1.2 (NM_012647 [42, 110]), rNav1.4 (NM_013178 [111, 112]), hNav1.5 (NM_198056 [113, 114]), mNav1.6 (NM_001077499 [115, 116]), BgNav [from Blattella germanica, (DQ466887 [117, 118])] and the auxiliary subunits rβ1 (NM_001271045 [119, 120]), hβ1 (NM_001037 [121, 122]), and TipE [from D. melanogaster, (NM_079196 [109, 123])], and Cav channels hCav3.1 [124, 125], hCav3.2 [126, 127], and hCav3.3 [128, 129] in Xenopus oocytes, the linearized plasmids were transcribed using the T7 or SP6 mMESSAGEmMACHINE transcription kit (Ambion, Austin, TX, USA). Mature female animals were purchased from Nasco (Fort Atkinson, USA) and were housed in the Aquatic Facility (KU Leuven) in compliance with the regulations of the European Union (EU) concerning the welfare of laboratory animals as declared in Directive 2010/63/EU. The use of X. laevis oocytes was approved by the Animal Ethics Committee of the KU Leuven with the license number P186/2019. Stage V–VI oocytes were collected from anesthetized female X. laevis frog as previously described, with the frogs anesthetized by placement in 0.1% tricaine solution (amino benzoic acid ethyl ester; Merck, USA). Oocyte microinjection was performed using a microinjector (Drummond Scientifc®, USA), with a programmed cRNA injection volume of 4—50 nL, depending on the channel subtype. The oocytes were incubated in ND96 solution (96 mM NaCl, 2 mM KCl, 1.8 mM CaCl2, 2 mM MgCl2, and 5 mM HEPES, pH 7.4), supplemented with 50 mg/l gentamicin sulfate.
(§2) Electrophysiological measurements were performed at room temperature (18–22 °C) using the two-electrode voltage clamp (TEVC) technique. Data were obtained using a GeneClamp 500 amplifier (Axon Instruments, USA), and Clampex9 software (Axon Instruments), responsible for data acquisition and storage. Glass micropipettes were produced using glass capillaries (borosilicate WPI 1B120-6) and drawn in a WPI (World Precision Instruments, USA) manual stretcher. The bath and perfusion solutions were either the previously described ND96 (Nav and Kv channels) or calcium-free ND96 supplemented with 10 mM BaCl2 (Cav channels).
(§3) Whole-cell currents of oocytes were recorded 1 to 3 days after injection. Current and voltage electrodes were filled with 3 M KCl and their resistance was adjusted from 0.7 to 2.0 MΩ. Currents were sampled at 20 kHz (Nav channels) and 10 kHz (Kv and Cav channels) and filtered using a four-pole Bessel low-pass Bessel filter, at 1 kHz for sodium, and […] for potassium and calcium, except for the hERG ion channel, in which the currents were filtered at 1 kHz. Leak subtraction was performed using a -P/4 protocol. Kv1.x currents were evoked by 500 ms depolarizations to 0 mV followed by a 500-ms pulse to − 50 mV, from a holding potential of − 90 mV. Kv2.1, Kv3.1, and Kv4.2 currents were elicited by 500 ms pulses to + 20 mV from a holding potential of − 90 mV. Current traces of Kv10.1 were elicited by 2 s depolarization to 0 mV, from a holding potential of − 90 mV. Current traces of hERG1 channel were elicited by applying a + 40 mV prepulse for 2 s followed by a step of − 120 mV for 2 s. Sodium current traces were evoked by a 100 ms depolarization to 0 mV, from a holding potential of − 90 mV. The current–voltage (IV) relationships were determined by 100-ms step depolarizations between − 90 and + 40 mV, using 5 mV increments. […]

[3] = test system: hCav3.2; experiment: TEVC inhibition, Cav3.2; format: cell-based, human; design: unit not given here; conditions: 1 µM
Excerpt: as §1, §2, §3

[4] = test system: hCav3.3; experiment: TEVC inhibition, Cav3.3; format: cell-based, human; design: unit not given here; conditions: 1 µM
Excerpt: as §1, §2, §3

Sequence | Prevention of Leukocyte Adh. on HMEC-1 [1] | Inhibition data, Kv4.2 ([2]; replicate 1) | Inhibition data, Kv4.2 ([2]; replicate 2) | Inhibition data, Kv4.2 ([2]; replicate 3) | Inhibition data, Kv4.2 ([2]; replicate 4) | Inhibition data, Cav3.2 ([3]; replicate 1) | Inhibition data, Cav3.2 ([3]; replicate 2) | Inhibition data, Cav3.2 ([3]; replicate 3) | Inhibition data, Cav3.2 ([3]; replicate 4) | Inhibition data, Cav3.3 ([4]; replicate 1) | Inhibition data, Cav3.3 ([4]; replicate 2) | Inhibition data, Cav3.3 ([4]; replicate 3) | Inhibition data, Cav3.3 ([4]; replicate 4)
KRSCIRRFGRCDHRPNDCCYNSSCRCNLWGSNCRCQRMGLFQKWGK (disulfide 4-19, 11-24, 18-35, 26-33) [xib13] | 106.6 | 0.0 | 0.0 | 0.0 | 0.0 | 0.0 | 0.0 | 0.0 | 0.0 | 0.0 | 0.0 | 0.0 | 0.0
RLFCIRHHKYCGHRPKRCCSGLFCRCNTFGTNCRCQSKGALGKLI (disulfide 4-19, 11-24, 18-35, 26-33) [xib1] |  | 0.0 | 0.0 | 0.0 | 0.0 | 0.0 | 0.0 | 0.0 | 0.0 | 0.0 | 0.0 | 0.0 | 0.0
